This passage reports inhibition, IC50 and Activity results from ChEMBL document CHEMBL6103628, “Structural Optimization of Covalent Inhibitors for Deubiquitinase ChlaDUB1 of Chlamydia trachomatis as Antibiotic Agents” (J Med Chem, 2025).

One may read the inhibition as how much of the control response was suppressed. A high value points to strong suppression. The term IC50 denotes the concentration that inhibits the measured activity by half.

For series [1], the target named is T1, Ubiquitin carboxyl-terminal hydrolase 25 (Homo sapiens) (UniProt Q9UHP3).
T1 sequence (whole entry): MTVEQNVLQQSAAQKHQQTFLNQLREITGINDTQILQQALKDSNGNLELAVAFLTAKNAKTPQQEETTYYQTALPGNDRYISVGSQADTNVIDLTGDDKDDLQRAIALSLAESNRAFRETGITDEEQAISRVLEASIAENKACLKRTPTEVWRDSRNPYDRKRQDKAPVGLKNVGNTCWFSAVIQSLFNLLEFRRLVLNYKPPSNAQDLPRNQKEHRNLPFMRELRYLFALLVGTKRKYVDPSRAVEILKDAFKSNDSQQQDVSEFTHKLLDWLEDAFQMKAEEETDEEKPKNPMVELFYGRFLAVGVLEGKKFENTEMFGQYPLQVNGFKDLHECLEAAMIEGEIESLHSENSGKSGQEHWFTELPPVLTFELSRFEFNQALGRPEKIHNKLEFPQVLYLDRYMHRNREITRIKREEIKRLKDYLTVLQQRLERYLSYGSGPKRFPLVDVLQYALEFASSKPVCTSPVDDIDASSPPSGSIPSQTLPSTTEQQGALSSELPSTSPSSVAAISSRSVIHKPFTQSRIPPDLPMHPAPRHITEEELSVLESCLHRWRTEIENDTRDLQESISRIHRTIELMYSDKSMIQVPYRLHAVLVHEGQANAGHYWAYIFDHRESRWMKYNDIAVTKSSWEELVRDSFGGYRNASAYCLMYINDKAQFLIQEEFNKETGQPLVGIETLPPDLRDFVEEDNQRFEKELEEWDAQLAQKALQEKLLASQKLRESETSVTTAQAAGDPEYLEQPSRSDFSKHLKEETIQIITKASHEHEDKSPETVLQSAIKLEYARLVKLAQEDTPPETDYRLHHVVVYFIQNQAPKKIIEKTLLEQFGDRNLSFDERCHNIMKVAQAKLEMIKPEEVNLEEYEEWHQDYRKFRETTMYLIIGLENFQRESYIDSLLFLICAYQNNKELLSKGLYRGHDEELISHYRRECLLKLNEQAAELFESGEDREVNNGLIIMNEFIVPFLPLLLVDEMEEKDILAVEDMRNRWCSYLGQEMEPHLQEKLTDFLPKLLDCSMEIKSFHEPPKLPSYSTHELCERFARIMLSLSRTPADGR
In words: Inhibition of human USP25 at 35 uM relative to control.

Series [2] deals with T2, Ubiquitin carboxyl-terminal hydrolase 28 (Homo sapiens) (UniProt Q96RU2).
T2 sequence (whole entry): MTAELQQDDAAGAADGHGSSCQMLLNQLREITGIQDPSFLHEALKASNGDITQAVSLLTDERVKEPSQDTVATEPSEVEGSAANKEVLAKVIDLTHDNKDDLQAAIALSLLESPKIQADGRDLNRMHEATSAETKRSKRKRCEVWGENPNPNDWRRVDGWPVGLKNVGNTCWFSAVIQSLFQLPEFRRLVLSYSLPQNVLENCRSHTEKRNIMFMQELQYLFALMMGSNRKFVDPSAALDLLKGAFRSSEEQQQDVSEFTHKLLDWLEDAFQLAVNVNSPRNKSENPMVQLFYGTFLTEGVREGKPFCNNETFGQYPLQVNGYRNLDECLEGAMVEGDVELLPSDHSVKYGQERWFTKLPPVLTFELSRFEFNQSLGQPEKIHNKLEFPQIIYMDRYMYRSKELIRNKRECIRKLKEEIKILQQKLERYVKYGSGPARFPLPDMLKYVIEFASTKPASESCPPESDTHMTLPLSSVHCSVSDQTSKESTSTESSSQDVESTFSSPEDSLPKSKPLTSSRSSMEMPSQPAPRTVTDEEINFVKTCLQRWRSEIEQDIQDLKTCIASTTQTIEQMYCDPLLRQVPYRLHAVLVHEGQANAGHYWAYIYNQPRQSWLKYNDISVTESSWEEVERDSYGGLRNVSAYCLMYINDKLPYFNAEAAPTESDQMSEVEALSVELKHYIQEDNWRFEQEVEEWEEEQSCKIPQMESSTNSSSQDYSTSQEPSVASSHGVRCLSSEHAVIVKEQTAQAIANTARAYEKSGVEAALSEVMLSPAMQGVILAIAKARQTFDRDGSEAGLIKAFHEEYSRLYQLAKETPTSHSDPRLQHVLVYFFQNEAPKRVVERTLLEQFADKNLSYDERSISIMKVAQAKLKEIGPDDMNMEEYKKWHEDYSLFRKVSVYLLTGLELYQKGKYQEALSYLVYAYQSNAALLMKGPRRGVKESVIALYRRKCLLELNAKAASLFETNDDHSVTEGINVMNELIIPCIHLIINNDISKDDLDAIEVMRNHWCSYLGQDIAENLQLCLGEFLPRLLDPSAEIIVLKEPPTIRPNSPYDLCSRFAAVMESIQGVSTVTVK
The series can be described thus: Inhibition of human USP28 at 35 uM relative to control.

Series [3] deals with T3, Ubiquitin thioesterase OTUB2 (Homo sapiens) (UniProt Q96DC9).
T3 sequence (whole entry): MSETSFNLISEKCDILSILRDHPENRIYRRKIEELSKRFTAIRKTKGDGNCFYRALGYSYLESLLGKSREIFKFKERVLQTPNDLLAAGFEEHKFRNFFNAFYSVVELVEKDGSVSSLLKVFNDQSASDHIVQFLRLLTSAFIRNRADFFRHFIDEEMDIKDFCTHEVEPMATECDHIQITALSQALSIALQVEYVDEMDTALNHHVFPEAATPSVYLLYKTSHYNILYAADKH
In words: Inhibition of human OTUB2 at 35 uM relative to control.

For series [4], the target named is Ubiquitin carboxyl-terminal hydrolase isozyme L1 (Homo sapiens) (UniProt P09936). The series can be described thus: Inhibition of human UCHL1 at 35 uM relative to control.
For another series, the system named is Chlamydia trachomatis. The series can be described thus: Anti-chlamydial activity against Chlamydia trachomatis serovar L2 infected in human HEp-2 cells assessed as inhibition of chlamydial inclusion incubated for 16 hrs by Alexa488/DAPI staining based immunofluorescence assay. To be noted: serovar L2, HEp-2, 16 h. It is filed as functional, organism-based.

The subject of a further series is HeLa. The series can be described thus: Cytotoxicity against human HeLa cells assessed as cell viability at 4 to 256 ug/mL measured after 20 hrs by XTT assay. It is filed as toxicity, cell-based. To be noted: dose 4-256 µg/ml.
Another series deals with HEK293. In words: Cytotoxicity against HEK293 cells assessed as reduction in cell viability upto 64 ug/mL measured after 20 hrs by XTT assay. It is filed as toxicity, cell-based. The note with it: human, hek293, 20 h, dose < 64 µg/ml. For orientation: Tetrazolium dyes change colour on reduction, which living cells bring about.
A further series deals with Staphylococcus aureus. In words: Antimicrobial activity against methicillin- resistant Staphylococcus aureus JE2 upto 256 microg/ml incubated for 20 hrs by resazurin staining based microtiter plate reader analysis. It is filed as functional, organism-based. The note with it: dose <= 256.0 µg/ml.

≈ marks a conversion by molar mass, not a printed value. Calls of active or inactive are those of the source. The calls are words filed in the database; no cut-off is given here.

Chain of Ubiquitin carboxyl-terminal hydrolase isozyme L1 (Homo sapiens) (P09936 whole entry, looked up): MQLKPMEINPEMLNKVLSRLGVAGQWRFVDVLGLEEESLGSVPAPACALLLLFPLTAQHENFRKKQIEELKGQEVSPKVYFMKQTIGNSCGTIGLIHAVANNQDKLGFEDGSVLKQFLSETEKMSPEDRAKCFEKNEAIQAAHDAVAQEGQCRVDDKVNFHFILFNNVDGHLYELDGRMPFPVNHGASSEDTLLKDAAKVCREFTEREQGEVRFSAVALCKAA

In the case of `N#Cc1nccc(C(=O)NCc2nn(C(=O)Cc3ccccc3)c3ccccc23)n1`, the inhibition in series [1], in series [2], in series [3] and in series [4] was less than 25% in each case. Also, in the series with Chlamydia trachomatis, the IC50 was 25.6 µg/mL (≈ 64.6 µM). Moreover, the Activity entry in the series with HeLa and in the series on HEK293 was “Non-toxic” each time. In addition, the outcome in the series on Staphylococcus aureus was inactive.
